One data set concerns the target T1, human TLR8 (Homo sapiens, UniProt Q9NR97).
T1 sequence (Q9NR97 27-1041): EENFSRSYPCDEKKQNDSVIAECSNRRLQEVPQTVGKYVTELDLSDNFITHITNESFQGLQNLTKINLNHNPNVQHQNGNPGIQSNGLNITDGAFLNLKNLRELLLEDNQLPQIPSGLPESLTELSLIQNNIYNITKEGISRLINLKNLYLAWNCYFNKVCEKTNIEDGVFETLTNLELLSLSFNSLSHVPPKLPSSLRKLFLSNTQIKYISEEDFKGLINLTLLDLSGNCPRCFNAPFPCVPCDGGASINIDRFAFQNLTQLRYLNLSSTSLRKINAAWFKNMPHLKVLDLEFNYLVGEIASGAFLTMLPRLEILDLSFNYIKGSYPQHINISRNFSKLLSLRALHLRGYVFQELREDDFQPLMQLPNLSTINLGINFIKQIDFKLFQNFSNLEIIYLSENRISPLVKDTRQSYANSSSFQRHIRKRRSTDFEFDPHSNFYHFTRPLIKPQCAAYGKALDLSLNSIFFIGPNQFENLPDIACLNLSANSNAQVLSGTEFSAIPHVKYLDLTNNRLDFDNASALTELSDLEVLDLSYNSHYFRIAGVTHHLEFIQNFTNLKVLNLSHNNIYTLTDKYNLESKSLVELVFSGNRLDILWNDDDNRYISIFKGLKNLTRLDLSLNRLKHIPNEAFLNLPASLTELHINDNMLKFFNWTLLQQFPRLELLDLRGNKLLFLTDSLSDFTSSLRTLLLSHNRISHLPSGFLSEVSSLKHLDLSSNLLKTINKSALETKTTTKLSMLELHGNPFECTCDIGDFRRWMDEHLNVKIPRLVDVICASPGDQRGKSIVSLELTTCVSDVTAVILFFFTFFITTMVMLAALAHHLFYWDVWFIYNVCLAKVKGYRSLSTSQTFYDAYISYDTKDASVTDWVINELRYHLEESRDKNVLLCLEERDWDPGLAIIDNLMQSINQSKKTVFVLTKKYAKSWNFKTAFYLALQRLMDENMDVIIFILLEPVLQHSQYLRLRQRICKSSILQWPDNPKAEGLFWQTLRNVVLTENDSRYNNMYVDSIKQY
Put plainly: HEK293-Blue-hTLR-8 cells assay (SEAP reporter, R848 stimulation). As to conditions: HEK293-Blue-hTLR8 cells, R848 ligand, 20 hrs incubation; read-out: HEK/hTLR8 IC50. The class given is cell-based. The method, then:
The following tests were carried out in order to determine the activity of the compounds of formula (I) in HEK293-Blue-hTLR-7/8/9 cells assay.
A stable HEK293-Blue-hTLR-8 cell line was purchased from InvivoGen (Cat.#: hkb-htlr8, San Diego, California, USA). These cells were originally designed for studying the stimulation of human TLR8 by monitoring the activation of NF-κB. A SEAP (secreted embryonic alkaline phosphatase) reporter gene was placed under the control of the IFN-β minimal promoter fused to five NF-κB and AP-1-binding sites. The SEAP was induced by activating NF-κB and. AP-1 via stimulating HEK-Blue hTLR8 cells with TLR8 ligands. Therefore the reporter expression was declined by TLR8 antagonist under the stimulation of a ligand, such as R848, for incubation of 20 hrs. The cell culture supernatant SEAP reporter activity was determined using QUANTI-Blue™ kit (Cat.#: rep-qb1, Invivogen, San Diego, Ca, USA) at a wavelength of 640 nm, a detection medium that tunas purple or blue in the presence of alkaline phosphatase.
HEK293-Blue-hTLR8 cells were incubated at a density of 250,000˜450,000 cells/mL in a volume of 170 μL in a 96-well plate in Dulbecco's Modified Eagle's medium (DMEM) containing 4.5 g/L glucose, 50 U/mL penicillin, […], […], 2 mM L-glutamine, 10% (v/v) heat-inactivated fetal bovine serum with addition of 20 μL test compound in a serial dilution in the presence of final DMSO at 1% and 10 μL of 60 uM R848 in above DMEM, perform incubation under 37° C. in a CO2 incubator for 20 hrs. Then 20 μL of the supernatant from each well was incubated with […] Quanti-blue substrate solution at 37° C. for 2 hrs and the absorbance was read at 620-655 nm using a spectrophotometer. The signalling pathway that TLR8 activation leads to downstream NF-κB activation has been widely accepted, and therefore similar reporter assay was modified for evaluating TLR8 antagonist.

In a further data set the target is T2, hERG (Homo sapiens, UniProt Q12809).
T2 construct: expressed in transfected cells
The data set is described as follows: hERG channel inhibition assay (patch-clamp, CHO hERG cells). Type of data set: cell-based. As to conditions: for IC50 / IC20: CHO hERG cells, whole-cell patch-clamp; for IC20: human, CHO cells stably expressing hERG; for hERG IC20/TLR7 IC50 / hERG IC20/TLR8 IC50 / hERG IC20/TLR9 IC50: safety ratio, >30 suggests sufficient window. How it is done: The hERG K^+ channels were cloned in humans and stably expressed in a CHO (Chinese hamster ovary) cell line. CHOhERG cells were used for patch-clamp (voltage-clamp, whole-cell) experiments. Cells were stimulated by a voltage pattern to activate hERG channels and conduct I KhERG currents (rapid delayed outward rectifier potassium current of the hERG channel). After the cells were stabilized for a few minutes, the amplitude and kinetics of I KhERG were recorded at a stimulation frequency of 0.1 Hz (6 bpm). Thereafter, the test compound was added to the preparation at increasing concentrations. For each concentration, an attempt was made to reach a steady-state effect, usually, this was achieved within 3-10 min at which time the next highest concentration was applied. The amplitude and kinetics of IKhERG are recorded in each concentration of the drug which were compared to the control values (taken as 100%). […]
For orientation: hERG is a cardiac potassium channel; its block is linked to QT prolongation.

Structures are written as SMILES.

T2 sequence (Q12809 whole entry): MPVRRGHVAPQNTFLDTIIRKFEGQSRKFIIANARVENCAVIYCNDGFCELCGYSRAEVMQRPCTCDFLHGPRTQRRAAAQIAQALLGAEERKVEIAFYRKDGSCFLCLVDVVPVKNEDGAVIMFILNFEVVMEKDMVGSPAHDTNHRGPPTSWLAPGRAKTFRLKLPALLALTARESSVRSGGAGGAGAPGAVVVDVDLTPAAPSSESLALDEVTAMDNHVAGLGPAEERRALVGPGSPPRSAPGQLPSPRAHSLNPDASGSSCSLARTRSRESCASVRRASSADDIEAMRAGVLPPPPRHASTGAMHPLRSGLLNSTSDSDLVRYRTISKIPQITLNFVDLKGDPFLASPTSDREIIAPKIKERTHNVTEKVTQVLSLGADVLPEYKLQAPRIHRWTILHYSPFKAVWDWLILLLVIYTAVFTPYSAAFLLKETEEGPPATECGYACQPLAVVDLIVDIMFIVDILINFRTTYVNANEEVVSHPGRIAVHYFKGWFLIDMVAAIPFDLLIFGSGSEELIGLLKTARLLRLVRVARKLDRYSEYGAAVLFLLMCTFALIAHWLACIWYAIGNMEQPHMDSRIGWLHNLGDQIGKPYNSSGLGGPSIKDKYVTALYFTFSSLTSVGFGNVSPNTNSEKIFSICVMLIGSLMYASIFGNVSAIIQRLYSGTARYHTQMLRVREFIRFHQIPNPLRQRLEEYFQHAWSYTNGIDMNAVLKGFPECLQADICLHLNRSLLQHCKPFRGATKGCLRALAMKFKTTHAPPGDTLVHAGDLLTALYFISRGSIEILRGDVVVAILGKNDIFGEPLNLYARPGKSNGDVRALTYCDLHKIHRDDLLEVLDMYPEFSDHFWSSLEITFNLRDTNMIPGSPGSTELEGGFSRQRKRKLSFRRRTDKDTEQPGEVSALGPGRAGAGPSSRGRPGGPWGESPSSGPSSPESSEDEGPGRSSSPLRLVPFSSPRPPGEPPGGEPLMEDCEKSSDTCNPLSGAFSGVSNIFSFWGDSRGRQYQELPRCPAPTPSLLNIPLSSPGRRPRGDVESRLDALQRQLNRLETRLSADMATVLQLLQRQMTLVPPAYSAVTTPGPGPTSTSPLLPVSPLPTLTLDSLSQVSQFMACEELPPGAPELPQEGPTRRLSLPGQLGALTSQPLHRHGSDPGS

The IC20 is the point of the concentration-response curve where the effect stands at 20%. Low values mean an effect from little substance, high ones a need for much substance. With `C[C@@H]1CN(c2ccc(C#N)c3ncccc23)C[C@H](C)N1CC(=O)N1Cc2ccc(N3CCNCC3)cc2C1` [Example 16, 5-[(3R,5S)-3,5-Dimethyl-4-[2-oxo-2-(5-piperazin-1-ylisoindolin-2-yl)ethyl]piperazin-1-yl]quinoline-8-carbonitrile], the IC50 at human TLR8 was determined as 55 nM. In addition, on hERG, the IC50 is > 20000 nM, the IC20 is > 10000 nM, the “hERG IC20/TLR7 IC50” value is >289 and the “hERG IC20/TLR8 IC50” value was >182. For the same compound, on hERG, the “hERG IC20/TLR9 IC50” value was >134.

As to `C[C@@H]1CN(c2ccc(C#N)c3ncccc23)C[C@H](C)N1Cc1ccc(N2CCN(C)CC2)cn1` [Example 7, 5-[(3S,5R)-3,5-dimethyl-4-[[5-(4-methylpiperazin-1-yl)-2-pyridyl]methyl]piperazin-1-yl]quinoline-8-carbonitrile], the IC50 at human TLR8 stood at 19 nM.

As for `C[C@@H]1CN(c2ccc(C#N)c3ncccc23)C[C@H](C)N1Cc1ccc(N2CCNCC2)nc1` [Example 3, 5-[(3R,5S)-3,5-Dimethyl-4-[(6-piperazin-1-yl-3-pyridyl)methyl]piperazin-1-yl]quinoline-8-carbonitrile], on human TLR8, the IC50 is 31 nM. Moreover, on hERG, the IC50 is > 20000 nM, it took 7400 nM to reach the 20% level (IC20), the “hERG IC20/TLR7 IC50” value was 383 and the “hERG IC20/TLR8 IC50” value stood at 240. Also, the “hERG IC20/TLR9 IC50” value at hERG worked out at 79.

Take `CC1CN(c2ccc(C#N)c3ncccc23)CCN1CC(=O)N1CCC(C2CCN(C)CC2)CC1` (stereo not shown) [Example 19, 5-[3-methyl-4-[2-[4-(1-methyl-4-piperidyl)-1-piperidyl]-2-oxo-ethyl]piperazin-1-yl]quinoline-8-carbonitrile]: at human TLR8, the IC50 was 93 nM.

In the case of `C[C@@H]1CN(c2ccc(C#N)c3ncccc23)C[C@H](C)N1Cc1ccc(N2CCNCC2CO)cc1` (stereo partly drawn) [Example 12, 5-[(3R,5S)-4-[[4-[2-(Hydroxymethyl)piperazin-1-yl]phenyl]methyl]-3,5-dimethyl-piperazin-1-yl]quinoline-8-carbonitrile], the IC50 on human TLR8 came to 33 nM.

With `CC1CN(c2ccc(C#N)c3ncccc23)CCN1CC(=O)Nc1ccc(N2CCNCC2)cc1` (stereo not shown) [Example 17, 2-[4-(8-Cyano-5-quinolyl)-2-methyl-piperazin-1-yl]-N-(4-piperazin-1-ylpheny)acetamide], on human TLR8, the IC50 turned out to be 58 nM.

Regarding `C[C@@H]1CN(c2ccc(C#N)c3ncccc23)C[C@H](C)N1CC(=O)N1CCc2cc(N3CCNCC3)ccc2C1` [Example 14, 5-[(3R,5S)-3,5-Dimethyl-4-[2-oxo-2-(6-piperazin-1-yl-3,4-dihyrdo-1H-isoquinolin-2-yl)ethyl]piperazin-1-yl]quinoline-8-carbonitrile], the IC50 at human TLR8 worked out at 20 nM.

Consider `C[C@@H]1CN(c2ccc(C#N)c3ncccc23)C[C@H](C)N1Cc1ccc(N2CC3CNCC(C2)O3)cn1` [Example 8, 5-[(3S,5R)-3,5-Dimethyl-4-[[5-(9-oxa-3,7-diazabicyclo[3.3.1]nonan-3-yl)-2-pyridyl]methyl]piperazin-1-yl]quinoline-8-carbonitrile], for which the IC50 on human TLR8 was determined as 36 nM.

Take `C[C@@H]1CN(c2ccc(C#N)c3ncccc23)C[C@H](C)N1Cc1ncc(N2CCN(C(=O)CN(C)C)CC2)cn1` [Example 6, 5-[(3S,5R)-4-[[5-[4-[2-(Dimethylamino)acetyl]piperazin-1-yl]pyrimidin-2-yl]methyl]-3,5-dimethyl-piperazin-1-yl]quinoline-8-carbonitrile]: the IC50 on human TLR8 was determined as 53 nM.

Regarding `C[C@@H]1CN(c2ccc(C#N)c3ncccc23)C[C@H](C)N1CC(=O)N1CCc2nc(N3CCNCC3)ccc2C1` [Example 13, 5-[(3R,5S)-3,5-Dimethyl-4-[2-oxo-2-(2-piperazin-1-yl-7,8-dihydro-5H-1,6-naphthyridin-6-yl)ethyl]piperazin-1-yl]quinoline-8-carbonitrile], at human TLR8, the IC50 amounted to 21 nM.

`C[C@@H]1CN(c2ccc(C#N)c3ncccc23)C[C@H](C)N1Cc1ccc(N2CCN(C(=O)CN(C)C)CC2)cn1` [Example 11, 5-[(3S,5R)-4-[[5-[4-[2-(Dimethylamino)acetyl]piperazin-1-yl]-2-pyridyl]methyl]-3,5-dimethyl-piperazin-1-yl]quinoline-8-carbonitrile]: the IC50 at human TLR8 was found to be 35 nM. Moreover, on hERG, the IC50 was > 20000 nM, the IC20 was > 10000 nM, the “hERG IC20/TLR7 IC50” value is >198 and the “hERG IC20/TLR8 IC50” value is recorded as >289. Besides, the “hERG IC20/TLR9 IC50” value at hERG is >104.

`C[C@@H]1CN(c2ccc(C#N)c3ncccc23)C[C@H](C)N1Cc1ccc(N2CCNCC2)cc1` [Example 1, 5-[(3R,5S)-3,5-Dimethyl-4-[(4-piperazin-1-ylphenyl)methyl]piperazin-1-yl]quinoline-8-carbonitrile]: the IC50 at human TLR8 was found to be 16 nM.

As for `C[C@@H]1CN(c2ccc(C#N)c3ncccc23)C[C@H](C)N1Cc1ncc(N2CCNCC2)cn1` [Example 4, 5-[(3S,5R)-3,5-Dimethyl-4-[(5-piperazin-1-ylpyrimidin-2-yl)methyl]piperazin-1-yl]quinoline-8-carbonitrile], the IC50 at human TLR8 stood at 19 nM. At hERG, the IC50 was > 20000 nM, it took 6300 nM to reach the 20% level (IC20), the “hERG IC20/TLR7 IC50” value is recorded as 384 and the “hERG IC20/TLR8 IC50” value came out at 355. The “hERG IC20/TLR9 IC50” value at hERG is listed as 45.

In the case of `C[C@@H]1CN(c2ccc(C#N)c3ncccc23)C[C@@H](C)N1Cc1ccc(N2CCNCC2)cc1` [Example 2], at human TLR8, the IC50 is 32 nM.

As to `C[C@@H]1CN(c2ccc(C#N)c3ncccc23)C[C@H](C)N1Cc1ccc(N[C@@H]2CNC[C@@H]2F)cn1` [Example 9, 5-[(3R,5S)-3,5-Dimethyl-4-[[5-[[(3R,4S)-4-fluoropyrrolidin-3-yl]amino]-2-pyridyl]methyl]piperazin-1-yl]quinoline-8-carbonitrile], the IC50 on human TLR8 turned out to be 22 nM.

As for `C[C@@H]1CN(c2ccc(C#N)c3ncccc23)C[C@H](C)N1CC(=O)N1CCc2ccc(N3CCNCC3)cc2C1` [Example 15, 5-[(3R,5S)-3,5-dimethyl-4-[2-pxp-2-(7-piperazin-1-yl-3,4-dihydro-1H-isoquinolin-2-yl)ethyl]piperazin-1-yl]quinoline-8-carbonitrile], the IC50 on human TLR8 was 46 nM.

Consider `CC1CN(c2ccc(C#N)c3ncccc23)CCN1CC(=O)Nc1ccc2c(c1)CCNC2` (stereo not shown) [Example 18, 2-[4-(8-Cyano-5-quinolyl)-2-methyl-piperazin-1yl]-N-(1,2,3,4-tetrahydroisoquinolin-6-yl)acetamide], for which, at human TLR8, the IC50 is 40 nM.

(Values after patent US11952363B2, “Piperazine compounds for the treatment of autoimmune disease” (Hoffmann-La Roche Inc., priority 2018, dated 2024).)
